Source: patent US20200246284A1 (Academia Sinica, priority 2015, published 2020)
Values joined by “and” are separate entries in the source; they are usually repeats but may differ in a detail not shown here. Identical values can stand only once. Like-named read-outs stand apart in the source and are kept apart here.

Legend:
[1] = tested on: SMS-CTR rhabdomyosarcoma; test: Cytotoxicity sarcoma; format: cell-based; conditions: Homo sapiens; SMS-CTR embryonal type
[2] = tested on: lymphoma cell lines (DLBCL GBC and ABC, mantle cell lymphoma); test: Cytotoxicity, panel of lymphoma cell lines (Tables 23, 24, 26); format: cell-based; conditions: Homo sapiens
[3] = in vitro; conditions: human, plasma
[4] = tested on: Karpas-422; conditions: human
Protocol: (§1) After 72 hours, the cultures were pulsed with Alamar Blue overnight, and the fluorescent intensity of resulted cultures was measured by a Synergy H1 plate-reader (BioTek Inc).

[5] = tested on: LY1; conditions: human
Protocol: as §1

[6] = tested on: Z-138; test: Cytotoxicity mantle cell lymphoma
Protocol: as §1

[7] = tested on: HUVEC umbilical endothelium; test: Cytotoxicity normal tissue 72 hr; format: cell-based, human
[8] = tested on: BMEC-hTert BM endothelium; format: cell-based, human
[9] = tested on: MA-10-W51; test: Cytotoxicity leukemia; format: cell-based, human; conditions: growth factor dependent MA-10-W51
Text: Human cord blood CD34+ cells transduced with MLL-AF9 gene: MA-10, MA-18. Human bone marrow CD34+ cells transduced with MLL-AF9 gene: MA-23. Human cord blood CD34+ cells transduced with MLL-AF9 and N-ras genes: MA-9.3, […] ).

[10] = tested on: SUDHL-5; test: Cytotoxicity DLBCL; conditions: read-out: cytotoxicity IC50; SUDHL-5, DLBCL GCB
[11] = for Microsome stability, turnover: 60 mins
[12] = tested on: Human Cancer Cell lines, Primary Patient Tumor Samples and normal tissues; test: Sensitivity classes over panel of cancer lines and normal tissues; format: cell-based; conditions: tumor cell lines of Table 12
[13] = tested on: Ly18; test: Cytotoxicity DLBCL; conditions: read-out: cytotoxicity IC50; LY18, DLBCL GCB
Protocol: as §1

[14] = tested on: CV1 renal fibroblasts; test: Cytotoxicity normal tissue 72 hr; format: cell-based, African green monkey (Cercopithecus aethiops)
[15] = tested on: primary Pre-B-ALL cells in NSG mice; test: Primary pre-B-ALL xenograft; format: in vivo, mouse; conditions: Q10D2x from day 7
[16] = Pharmacokinetics, single IV 1 mg/kg or oral 10 mg/kg; format: in vivo, Sprague Dawley rats; conditions: for oral absorption: 10 mg/kg
Protocol: A single intravenous dose was administered via an indwelling catheter in the jugular vein to a group of 2 male rats at a dose level of 1.0 mg/kg. The formulations were prepared as a solution in 5.0% w/v DMSO with 10% w/v Cremophor in distilled water. […] The formulations were prepared as a solution in 0.5% w/v CMC in distilled water. Serial blood samples were collected from the jugular vein catheter up to 24 h post-dose from all animals in groups.

[17] = tested on: Mino; test: Combination with BO-1055, MCL (Tables 28, 29); format: cell-based, human; conditions: read-out: IC50 single drug
[18] = tested on: MS-5 adult BM stroma; test: Cytotoxicity normal tissue 72 hr; format: cell-based, mouse
[19] = tested on: H1650; format: cell-based, human
[20] = tested on: SK-MES-1; format: cell-based, human
[21] = tested on: H249; test: Cytotoxicity SCLC 72 hr alamar blue; format: cell-based, human
[22] = tested on: PC1 (jap); format: cell-based, human
[23] = tested on: CALU-1; format: cell-based, human
[24] = tested on: H647; format: cell-based, human
[25] = tested on: H1781; format: cell-based, human
[26] = tested on: H358; format: cell-based, human
[27] = tested on: H525; format: cell-based, human
[28] = tested on: H1373; format: cell-based, human
[29] = tested on: PC9; format: cell-based, human
[30] = tested on: HL-1 cardiomyocyte; test: Cytotoxicity normal tissue 72 hr; format: cell-based; conditions: HL-1, 72 hr
[31] = tested on: H596; format: cell-based, human
[32] = tested on: H2228; format: cell-based, human
[33] = tested on: FTE-hTERT Fallopian epithelium; test: Cytotoxicity normal tissue 72 hr; format: cell-based, human
[34] = tested on: BMMSC BM mesenchyme; test: Cytotoxicity normal tissue 72 hr; format: cell-based, human
[35] = tested on: BCI-NSI hTERT bronchial epithelium; test: Cytotoxicity normal tissue 72 hr; format: cell-based, human; conditions: read-out: IC50

**Q.** What does the source list for `CN(C)CCNC(=O)c1cccc(NC(=O)Nc2ccc(N(CCCl)CCCl)cc2)c1` [BO-1055, Ureidomustine]?
**A.** IC50 [1]: 10 µM; IC50 ([2]; lines with WT Bcl2): ≥ 0.12 µM; IC50 ([2]; two resistant lines): > 10 µM; fraction unbound [3]: 0.01; fraction unbound at 2 h [3]: 0.01; IC50 [4]: 5.85 µM; IC50 [5]: 3.86 µM; IC50 ([6]; read-out: cytotoxicity IC50, Z-138, mantle cell lymphoma): 0.3 µM; IC50 ([6]; read-out: mean IC50±SD, Z-138): 0.182 ± 0.15 µM; IC50 [7]: 50 µM; IC50 ([8]; BMEC-hTert, 72 hr): ≥ 10 µM; cytotoxicity, dose titration (FIG. 9) [9]: highly cytotoxic; IC50 [10]: 4.14 µM; Microsome stability, turnover [11]: 75%; Microsome stability, turnover ([11]; listed as ureidomustine): 75% (60 mins turnover %); % Remaining at 60 min ([11]; RLM): 25%; MR (metabolic rate) ([11]; RLM, 60 min): 0.0203 nmol/min/mg; share of tested cell lines with IC50 in sub-μM range [12]: 30%; IC50 [13]: 0.61 µM; IC50 ([14]; Chlorocebus sabaeus, Fibroblast, 72 h): > 100 µM; reduction of tumor growth [15]: 2 log; survival longer than control [15]: ~100 days; AUC (0-last) ([16]; IV 1 mg/kg, rat): 0.92581 µg·h/mL; AUC (0-∞) ([16]; IV 1 mg/kg, rat): 0.93493 µg·h/mL; CLss ([16]; IV 1 mg/kg, rat): 1.08 L/h/kg; Vss ([16]; IV 1 mg/kg, rat): 0.15 L/kg; t1/2 ([16]; IV 1 mg/kg, rat): 34.8 min; C0 ([16]; male, Sprague Dawley, plasma, IV 1 mg/kg, rat): 12 µg/mL; plasma levels after oral administration ([16]; oral 10 mg/kg, LLOQ […]): No quantifiable levels; oral absorption ([16]; oral 10 mg/kg, rat): no oral absorption; oral absorption ([16]; oral 10 mg/kg, rat, listed as ureidomustine): No Oral Absorption; IC50 [17]: 0.115 µM and 0.105 µM and 0.101 µM; IC50 ([18]; MS-5 (mouse), 72 hr): ≥ 10 µM

**Q.** With `N.N.[Cl][Pt][Cl]` [Cisplatin] as the molecule, how does the IC50 [19] read?
**A.** Its IC50 is 7.51 µM.

**Q.** What about the IC50 [20] of the same molecule?
**A.** Its IC50 is no less than 50 µM.

**Q.** What about the IC50 [21] of the same molecule?
**A.** The IC50 was 1.51 µM.

**Q.** And the IC50 [22]?
**A.** The IC50 was no less than 20 µM.

**Q.** And the IC50 [23]?
**A.** Its IC50 is no less than 20 µM.

**Q.** What about the IC50 ([7]; read-out: IC50) of the same molecule?
**A.** The IC50 was 50 µM.

**Q.** What about the IC50 [24] of the same molecule?
**A.** Its IC50 is 8.75 µM.

**Q.** What about the IC50 ([8]; read-out: IC50) of the same molecule?
**A.** Its IC50 is 20 µM.

**Q.** What about the IC50 [25] of the same molecule?
**A.** The IC50 was 1.67 µM.

**Q.** And the IC50 [26]?
**A.** The IC50 was 5.9 µM.

**Q.** And the IC50 ([14]; read-out: IC50)?
**A.** The IC50 was 97.9 µM.

**Q.** And the IC50 [27]?
**A.** The IC50 was 7.74 µM.

**Q.** And the IC50 [28]?
**A.** The IC50 was 9.46 µM.

**Q.** What about the IC50 [29] of the same molecule?
**A.** The IC50 was 8.12 µM.

**Q.** And the IC50 [30]?
**A.** The IC50 was 47 µM.

**Q.** And the IC50 [31]?
**A.** The IC50 was no less than 10 µM.

**Q.** What about the IC50 [32] of the same molecule?
**A.** The IC50 was no less than 25 µM.

**Q.** What about the IC50 [33] of the same molecule?
**A.** The IC50 was 100 µM.

**Q.** And the IC50 ([18]; read-out: IC50)?
**A.** Its IC50 is 22 µM.

**Q.** What about the IC50 [34] of the same molecule?
**A.** The IC50 was 20 µM.

**Q.** And the IC50 [35]?
**A.** Its IC50 is 30 µM.
